The results in this text go back to patent US20180251431A1 (VERTEX PHARMACEUTICALS INCORPORATED, priority 2016, published 2018).

pIC50: −log10 of the molar value. Where two headings read alike, the source gives them in different places.

The test concerns HEK293 cells. Description: HEK293 VLCFA-LPC IC50 determination (13C-labeled C26:0 LPC by UHPLC/MS). It is filed as cell-based, human. The procedure: HEK293 cells were treated with compounds, such as those listed in Tables A-E of Example 1, using the representative manual protocols described below. The protocols below were also adapted to a semi-automated protocol using standard methods in the art.
Cell Culture Growth Conditions:
HEK293 cells were maintained in FreeStyle F17 media (Gibco # A13835) supplemented with PenStrep (1%, Gibco #15070-063), Glutamax (2%, Gibco #35050-061), and Pluronic (0.1%, Gibco #24040-032) (“supplemented media”). Suspension cultures were grown in disposable Erlenmeyer flasks at about 120 rpm, 37° C., 5% CO2, and 80% humidity. Cell densities were kept between about 0.5 and 3 million cells per mL, in about 50-200 mL per flask.
Treatment of Cells with Compounds Provided Herein:
The cells were treated with compounds using either a total of 900 uL cell media volume (high-volume assay) or a total of 200 uL cell media volume (low-volume assay). In the high volume assay, 450 μL of supplemented media plus 13C-acetate (1.0 mg/mL, Sigma Aldrich #282014) were added to 0.5 μL of a compound (such as those in Tables A-E) in DMSO in a polypropylene v-bottom plate (Costar #3363) in 1 of 3 dilution schemes. The contents of each well were mixed and transferred to a sterile polypropylene deep-well v-bottom plate (Costar #3960). 450 μL of cultured HEK293 cells in supplemented media at a density of 1.0 million cells/mL was added to each well. In the low volume assay, 100 μL of supplemented media plus 13C-acetate (1.0 mg/mL, Sigma Aldrich #282014) were added to either 0.1 μL or 1.0 uL of a compound (such as those in Tables A-E) in DMSO in a polypropylene v-bottom plate (Costar #3363) in 1 of 3 dilution schemes. 100 μL of cultured HEK293 cells in supplemented media at a density of 1.0 million cells/mL was added to each well. The high volume and low volume plates were sealed with either AirPore Tape Sheets (Qiagen #19571) or Duetz plate covers to control evaporation and placed into a shaking incubator at 225 rpm, 37° C., 5% CO2, and 80% humidity for 48 hours. For both the high and low volume assays the 3 dilution schemes used were as follows:
Following incubation, treated cells were harvested by centrifugation at 1690×g for 10 minutes. In the high volume assay 200 uL treated cells were transferred to a polypropylene v-bottom plate (Costar #3363) prior to centrifugation. In the low volume assay the incubation plate was centrifuged directly, without a transfer step. The supernatant was then discarded and the analytes were extracted using 1 of 2 different extraction schemes. In the first scheme, the cell pellet was visibly broken up by mixing the cell pellet up and down in 100 μL of hexane/isopropanol (60:40) 20 times. The resulting mixture was transferred to a 0.45 μm Durapore membrane (Millipore #MSH VN4510) atop a polypropylene v-bottom plate (Costar #3363) and filtered by centrifugation at 1690×g for 5 minutes. 120 μL of n-butanol containing 10 nM C13:0 lysophosphatidylcholine was added to the filtrate as an injection control standard, then the entire volume was transferred to a new Durapore membrane/v-bottom plate. In the second scheme, the cell pellet was visibly broken up by mixing the cell pellet up and down in 180 μL of methanol containing 10 nM C13:0 lysophosphatidylcholine 20 times. The resulting mixture was transferred to a 0.45 μm Durapore membrane (Millipore #MSH VN4510) atop a polypropylene v-bottom plate and filtered by centrifugation at 1690×g for 5 minutes. In both schemes, the plates were then sealed with pierceable capmats (Micronic MP53017) and stored at −20 OC until analyzed.
UHPLC/Mass Spectrometry Readout:
The filtered organic extraction was analyzed with a 1290 Agilent Infinity Series UHPLC coupled to an ABI Sciex QTrap 6500 mass spectrometer. […]

Setting [1] is: Homo sapiens, HEK293, HEK293 cells, average of one or more replicates, read-out: Average HEK293 IC50.
Setting [2] is: Homo sapiens, HEK293, 48 h, average of one or more replicates, 13C-labeled C26:0 LPC, 48 hours, read-out: Average HEK293 IC50.
The mark [3] stands for this setting: average of one or more replicates, 13C-labeled C26:0 LPC, 48 hours, read-out: Average HEK293 IC50.

On to `O=C(Nc1ccn(-c2ccccc2)n1)C1(c2ccccc2)CC1(F)F` (racemic) [Compound 143, 2,2-difluoro-1-phenyl-N-(1-phenyl-1H-pyrazol-3-yl)cyclopropane-1-carboxamide], for which the negative logarithm of the IC50 (pIC50) under setting [1] was 6.85.

Turning to `O=C(Nc1ccn(-c2ccnc(F)c2)n1)C1(c2ccccc2)CC1(F)F` (racemic) [Compound 169, 2,2-difluoro-N-(1-(2-fluoropyridin-4-yl)-1H-pyrazol-3-yl)-1-phenylcyclopropane-1-carboxamide], the pIC50 (Homo sapiens, HEK293, read-out: Average HEK293 IC50) is 7.28.

Turning to `O=C(Nc1ccn(-c2ccncc2)n1)C1(c2ccccc2)CC1(F)F` (racemic) [Compound 419, 2,2-difluoro-1-phenyl-N-(1-(pyridin-4-yl)-1H-pyrazol-3-yl)cyclopropane-1-carboxamide], the pIC50 under setting [1] is 6.62.

For the compound `O=C(Nc1ccn(-c2cncc(F)c2)n1)C1(c2ccccc2)CC1(F)F` (racemic) [Compound 420, 2,2-difluoro-N-(1-(5-fluoropyridin-3-yl)-1H-pyrazol-3-yl)-1-phenylcyclopropane-1-carboxamide], the pIC50 under setting [1] was 7.00.

As for `O=C(Nc1ccn(-c2cccc(Cl)c2)n1)C1(c2ccccc2)CC1(F)F` (racemic) [Compound 421, N-(1-(3-chlorophenyl)-1H-pyrazol-3-yl)-2,2-difluoro-1-phenylcyclopropane-1-carboxamide], under setting [1], the negative logarithm of the IC50 (pIC50) was 6.33.

As to `O=C(Nc1ccn(-c2cncc(F)c2)n1)C1(c2ncccc2F)CC12CC2` (racemic) [Compound 473, 1-(3-fluoropyridin-2-yl)-N-(1-(5-fluoropyridin-3-yl)-1H-pyrazol-3-yl)spiro[2.2]pentane-1-carboxamide], the pIC50 under setting [1] was 6.37.

For `O=C(Nc1ccn(-c2ccccc2)n1)C1(c2ccccc2)CC1(F)F` (single isomer, unassigned) [Compound 366], the negative logarithm of the IC50 (pIC50) under setting [2] was 6.68.

Regarding `O=C(Nc1ccn(-c2ccccc2)n1)C1(c2ccccc2)CC1(F)F` (single isomer, unassigned) [Compound 367], the negative-log IC50 (pIC50) under setting [3] is 6.96.

As to `O=C(Nc1ccn(-c2ccnc(F)c2)n1)C1(c2ccccc2)CC1(F)F` (single isomer, unassigned) [Compound 368], under setting [2], the negative logarithm of the IC50 (pIC50) is 7.49.

For the compound `O=C(Nc1ccn(-c2ccnc(F)c2)n1)C1(c2ccccc2)CC1(F)F` (single isomer, unassigned) [Compound 369], the pIC50 under setting [3] was 7.44.

On to `O=C(Nc1ccn(-c2ccnc(F)c2)n1)C1(c2ccccc2)CC1(Cl)Cl` (single isomer, unassigned) [Compound 370], for which the pIC50 under setting [2] is 6.77.

As to `O=C(Nc1ccn(-c2ccnc(F)c2)n1)C1(c2ccccc2)CC1(Cl)Cl` (single isomer, unassigned) [Compound 371], under setting [2], the pIC50 was 6.14.

As for `O=C(Nc1ccn(-c2ccncc2)n1)C1(c2ccccc2)CC1(F)F` (single isomer, unassigned) [Compound 433], the pIC50 under setting [2] is 6.49.

For `O=C(Nc1ccn(-c2ccncc2)n1)C1(c2ccccc2)CC1(F)F` (single isomer, unassigned) [Compound 434], the pIC50 under setting [3] is 6.47.

In the case of `O=C(Nc1ccn(-c2cncc(F)c2)n1)C1(c2ccccc2)CC1(F)F` (single isomer, unassigned) [Compound 435], under setting [3], the pIC50 is 7.22.

In the case of `O=C(Nc1ccn(-c2cncc(F)c2)n1)C1(c2ccccc2)CC1(F)F` (single isomer, unassigned) [Compound 436], the negative-log IC50 (pIC50) under setting [3] is 6.74.

As to `O=C(Nc1ccn(-c2cccc(Cl)c2)n1)C1(c2ccccc2)CC1(F)F` (single isomer, unassigned) [Compound 437], under setting [3], the negative-log IC50 (pIC50) is 5.62.

For the compound `O=C(Nc1ccn(-c2cccc(Cl)c2)n1)C1(c2ccccc2)CC1(F)F` (single isomer, unassigned) [Compound 438], the negative logarithm of the IC50 (pIC50) under setting [3] was 6.27.

With `O=C(Nc1ccn(-c2cncc(F)c2)n1)[C@]1(c2ncccc2F)CC12CC2` (single isomer, unassigned) [Compound 499], the pIC50 under setting [2] is 6.13.

For the compound `O=C(Nc1ccn(-c2cncc(F)c2)n1)[C@@]1(c2ncccc2F)CC12CC2` (single isomer, unassigned) [Compound 500], under setting [2], the negative-log IC50 (pIC50) is 6.37.

For `O=C(Cc1ccccc1F)Nc1ccn(-c2ccccc2)n1` [Compound 1, 2-(2-fluorophenyl)-N-(1-phenylpyrazol-3-yl)acetamide], under setting [1], the negative-log IC50 (pIC50) was 7.17.

In the case of `O=C(Nc1ccn(-c2ccccc2)n1)C1(c2ccccc2)CC1` [Compound 2, 1-phenyl-N-(1-phenyl-1H-pyrazol-3-yl)cyclopropane-1-carboxamide], the pIC50 under setting [1] is 7.70.

Take `O=C(Cc1ccccc1F)Nc1ccn(-c2ccnc(Cl)c2)n1` [Compound 4, N-[1-(2-chloro-4-pyridyl)pyrazol-3-yl]-2-(2-fluorophenyl)acetamide]: the negative-log IC50 (pIC50) under setting [1] was 6.19.

For the compound `O=C(Cc1ccsc1)Nc1ccn(-c2ccccc2)n1` [Compound 5, N-(1-phenylpyrazol-3-yl)-2-(3-thienyl)acetamide], under setting [1], the negative logarithm of the IC50 (pIC50) is 6.39.

On to `O=C(Cc1ccc(Cl)cc1)Nc1ccn(-c2ccccc2)n1` [Compound 6, 2-(4-chlorophenyl)-N-(1-phenylpyrazol-3-yl)acetamide], for which the negative-log IC50 (pIC50) under setting [1] is < 5.30.

With `COc1cccc(CC(=O)Nc2ccn(-c3ccccc3)n2)c1OC` [Compound 7, 2-(2,3-dimethoxyphenyl)-N-(1-phenylpyrazol-3-yl)acetamide], the negative logarithm of the IC50 (pIC50) under setting [1] was < 5.30.

Regarding `COc1cc(CC(=O)Nc2ccn(-c3ccccc3)n2)ccc1O` [Compound 9, 2-(4-hydroxy-3-methoxy-phenyl)-N-(1-phenylpyrazol-3-yl)acetamide], the negative logarithm of the IC50 (pIC50) under setting [1] is < 5.30.

For `CC(C)c1ccc(CC(=O)Nc2ccn(-c3ccccc3)n2)cc1` [Compound 10, 2-(4-isopropylphenyl)-N-(1-phenylpyrazol-3-yl)acetamide], under setting [1], the negative-log IC50 (pIC50) was 5.36.

On to `Cc1ccccc1C1(C(=O)Nc2ccn(-c3ccccc3)n2)CC1` [Compound 12, 1-(o-tolyl)-N-(1-phenylpyrazol-3-yl)cyclopropanecarboxamide], for which the pIC50 under setting [1] is 6.89.

Turning to `O=C(Nc1ccn(-c2ccccc2)n1)C1(c2ccc(F)cc2)CC1` [Compound 13, 1-(4-fluorophenyl)-N-(1-phenylpyrazol-3-yl)cyclopropanecarboxamide], under setting [1], the pIC50 was 7.09.

Consider `O=C(Cc1ccccc1F)Nc1ccn(-c2ccncc2)n1` [Compound 14, 2-(2-fluorophenyl)-N-[1-(4-pyridyl)pyrazol-3-yl]acetamide], for which the negative logarithm of the IC50 (pIC50) under setting [1] was 6.24.

`O=C(Cc1ccccc1F)Nc1ccn(-c2cncnc2)n1` [Compound 15, 2-(2-fluorophenyl)-N-(1-pyrimidin-5-ylpyrazol-3-yl)acetamide]: under setting [1], the negative-log IC50 (pIC50) is 6.00.

As to `O=C(Cc1ccc(F)cc1)Nc1ccn(-c2ccccc2)n1` [Compound 16, 2-(4-fluorophenyl)-N-(1-phenylpyrazol-3-yl)acetamide], the negative logarithm of the IC50 (pIC50) under setting [1] is 6.48.

Turning to `O=C(Cc1cc(F)c(F)c(F)c1)Nc1ccn(-c2ccccc2)n1` [Compound 17, N-(1-phenylpyrazol-3-yl)-2-(3,4,5-trifluorophenyl)acetamide], the negative logarithm of the IC50 (pIC50) under setting [1] was < 5.30.

Turning to `O=C(Cc1ccc(F)cc1F)Nc1ccn(-c2ccccc2)n1` [Compound 18, 2-(2,4-difluorophenyl)-N-(1-phenylpyrazol-3-yl)acetamide], the negative logarithm of the IC50 (pIC50) under setting [1] is 6.59.

`O=C(Nc1ccn(-c2ccccc2)n1)C1(c2cccc(Cl)c2)CC1` [Compound 19, 1-(3-chlorophenyl)-N-(1-phenylpyrazol-3-yl)cyclopropanecarboxamide]: the pIC50 under setting [1] is 6.60.

In general, pIC50 refers to the IC50 on a negative log10 scale, so that one unit is a factor of ten.
